# Test system: not listed separately
# Experiment: physchem
# Conditions: not given
row,Structure (SMILES),chromatographic logP
1,"NC(=O)c1cccnc1 [Nicotinamide, reference compound]",-0.34
2,"CCCCCCCCOC(=O)c1cccnc1 [8 carbons, octyl nicotinate]",4.8

# Test system: endothelial cells of the blood capillaries
# Experiment: not given
# Conditions: in vivo
Structure (SMILES),Erythematous Response,Vasodilation at the site of topical application
"NC(=O)c1cccnc1 [Nicotinamide, reference compound]",No,does not cause vasodilation

# Test system: endothelial cells of the blood capillaries
# Experiment: Erythematous response / vasodilation at the site of topical application
# Conditions: not given
row,Structure (SMILES),Erythematous Response
1,CCCCCCCCCCCCCOC(=O)c1cccnc1 [13 carbons],No
2,CCCCCCCCCCCCCCCCCCOC(=O)c1cccnc1 [18 carbons],No
3,CCCCCCCCCCCCCCCOC(=O)c1cccnc1 [15 carbons],No
4,CCCCCCCCCCCCOC(=O)c1cccnc1 [12 carbons],No
5,"CCCCCCCCOC(=O)c1cccnc1 [8 carbons, octyl nicotinate]",Yes
6,COC(=O)c1cccnc1 [1 carbon],Yes
7,CCCCCCCCCCCCCCCCOC(=O)c1cccnc1 [16 carbons],No
8,CCCCOC(=O)c1cccnc1 [4 carbons],Yes
9,CCCCCCCCCCCCCCOC(=O)c1cccnc1 [14 carbons],No
10,CCCCCCCCCCOC(=O)c1cccnc1 [10 carbons],Slight

# Test system: skin of hairless mice
# Experiment: Skin NAD content following topical application of niacin pronutrients
# Type: in vivo, female hairless mice (HRS-J)
# Conditions: abdomen, where the pronutrient was not applied
# Method: In animal experiments, female hairless mice (HRS-J, 6-8 weeks old), received daily topical application of nicotinic acid esters, using 200 mg of commercially available “Vanicream” lotion, at a 1.0% (wt/wt) concentration, for three days. Control animals received Vanicream only.
# Animals were euthanized, and dorsal and ventral skin samples were then frozen in liquid nitrogen, and stored at −80° C. In order to analyze NAD and protein content, tissue samples were homogenized, in 0.5M, ice cold HClO4, and then centrifuged at 3000 rpm for 15 minutes. The resulting supernatants were neutralized with ice-cold 2M KOH/0.66M KH2PO4, in order to determine NAD. The NAD was determined in accordance with Jacobson, et al., Meth. Enzymol. 280: 221-230 (1997) incorporated by reference, while a commercially available BCA method was used for protein determination.
row,Structure (SMILES),Effect on NAD content of the abdomen (in words)
1,CCCCCCCCCCCCOC(=O)c1cccnc1 [12 carbons],some delivery to the abdomen
2,CCCCCCCCCCCCCCCCOC(=O)c1cccnc1 [16 carbons],no increase
3,CCCCCCCCCCCCCCOC(=O)c1cccnc1 [14 carbons],no increase

# Same assay, conditions: not the site of application; 1% in lotion applied to back once per day for three days, hairless mice
row,Structure (SMILES),Skin NAD content of abdomen
1,CCCCCCCCCCCCOC(=O)c1cccnc1 [12 carbons],82.6 +/− 14.8 pmol NAD/mg tissue
2,CCCCCCCCCCCCCCCCOC(=O)c1cccnc1 [16 carbons],52.1 +/− 10.4 pmol NAD/mg tissue
3,CCCCCCCCCCCCCCOC(=O)c1cccnc1 [14 carbons],55.8 +/− 13.8 pmol NAD/mg tissue

# Same assay, conditions: relative to lotion only = 100; not the site of application; 1% in lotion applied to back
row,Structure (SMILES),"Skin NAD content of abdomen, % [%]"
1,CCCCCCCCCCCCOC(=O)c1cccnc1 [12 carbons],137
2,CCCCCCCCCCCCCCCCOC(=O)c1cccnc1 [16 carbons],86
3,CCCCCCCCCCCCCCOC(=O)c1cccnc1 [14 carbons],92

# Same assay, conditions: relative to lotion only = 100; site of application; 1% in lotion, once per day for three days
row,Structure (SMILES),"Skin NAD content of back, % [%]"
1,CCCCCCCCCCCCOC(=O)c1cccnc1 [12 carbons],141
2,CCCCCCCCCCCCCCCCOC(=O)c1cccnc1 [16 carbons],120
3,CCCCCCCCCCCCCCOC(=O)c1cccnc1 [14 carbons],181

# Same assay, conditions: site of application; 1% in lotion, topical once per day for three days, hairless mice
row,Structure (SMILES),Skin NAD content of back
1,CCCCCCCCCCCCOC(=O)c1cccnc1 [12 carbons],129.4 +/− 15.4 pmol NAD/mg tissue
2,CCCCCCCCCCCCCCCCOC(=O)c1cccnc1 [16 carbons],109.5 +/− 8.3 pmol NAD/mg tissue
3,CCCCCCCCCCCCCCOC(=O)c1cccnc1 [14 carbons],165.7 +/− 12.0 pmol NAD/mg tissue

# Same assay, conditions: topical application, back of hairless mice
row,Structure (SMILES),Effect on skin NAD content at site of application (in words)
1,"NC(=O)c1cccnc1 [Nicotinamide, reference compound]",no effect
2,CCCCCCCCCCCCCCCCCCOC(=O)c1cccnc1 [18 carbons],less effective
3,CCCCCCCCCCCCOC(=O)c1cccnc1 [12 carbons],increased NAD content
4,CCCCCCCCCCCCCCCCOC(=O)c1cccnc1 [16 carbons],increased NAD content
5,CCCCCCCCCCCCCCOC(=O)c1cccnc1 [14 carbons],most effective

# Test system: endothelial cells of blood capillaries
# Experiment: Skin oxygen content by transcutaneous oxygen monitor after topical lotion
# Type: in vivo
# Conditions: lotion applied topically for thirty minutes, then removed
# From the text: In this experiment, a transcutaneous oxygen monitor has been used to determine oxygen content in the skin. A lotion containing the test compound was topically applied for thirty minutes. The lotion was then removed and the transcutaneous oxygen monitor was placed on the surface of the skin. […] Butyl benzoate was chosen as the co-ester.
row,Structure (SMILES),Skin oxygen content (PO2)
1,"CCCCCCCCOC(=O)c1cccnc1 [8 carbons, octyl nicotinate]",increase in skin oxygen content

# — patent publication US20020037898A1, “Topical micronutrient delivery system and uses thereof” (priority 2000, published 2002)
